Activity calls are given as the source filed them. The calls are words filed in the database; no cut-off is given here.

In series [1] the target is 3',5'-cyclic-AMP phosphodiesterase 7B (Homo sapiens, UniProt Q9NP56). Briefly: Inhibition of human PDE7B.
The nature of series [2]: AUClast in Wistar Han rat at 5 mg/kg, po measured at 0.083 to 24 hrs by LC-MS/MS analysis. The series is classed as ADME, organism-based. Details: time upper 24 hrs, dose 5 mg/kg, time lower 0.083 hrs, route po. The settings on record: in vivo.
Series [3] deals with T1, Melanocortin receptor 5 (Homo sapiens, UniProt P33032). Briefly: Displacement of [125I]-NDP-alpha-MSH from human MC5R expressed in CHO cells measured for 2 hrs by microbeta counter analysis. Type of series: cell-based.
In series [4] the target is Voltage-gated inwardly rectifying potassium channel KCNH2 (Homo sapiens, UniProt Q12809). Briefly: Inhibition of hERG expressed in CHO cells stably at -80 mV holding potential by automated patch clamp method. The series is classed as toxicity, cell-based. On the technique in general: The hERG channel carries a current that helps repolarise heart muscle cells.
The nature of series [5]: Displacement of [125I]-NDP-alpha-MSH from dog MC4R expressed in CHO cells by microbeta counter analysis. The series is classed as cell-based, Canis lupus familiaris. Background: Loss of bound radioactivity is the signal in a displacement assay; it reports binding, not function.
The nature of series [6]: AUClast in Wistar Han rat at 1 mg/kg, iv measured at 0.033 to 24 hrs by LC-MS/MS analysis. The series is classed as ADME, organism-based. Details: dose 1 mg/kg, time upper 24 hrs, time lower 0.033 hrs, route iv. The settings on record: in vivo.
Series [7] in a line: AUC (0 to infinity) in Wistar Han rat at 5 mg/kg, po measured at 0.083 to 24 hrs by LC-MS/MS analysis. Type of series: ADME, organism-based. The arrangement: dose 5 mg/kg, time 0.083-24 hrs, route po. To be noted: in vivo.
The target in the next series is Melanocortin receptor 3 (Homo sapiens, UniProt P41968). The experiment in a line: Displacement of [125I]-NDP-alpha-MSH from human MC3R expressed in CHO cells measured for 2 hrs by microbeta counter analysis. The series is classed as cell-based.
Series [8] is described as follows: AUC (0 to infinity) in Wistar Han rat at 1 mg/kg, iv measured at 0.033 to 24 hrs by LC-MS/MS analysis. Details: time upper 24 hrs, dose 1 mg/kg, time lower 0.033 hrs, route iv. Type of series: ADME, organism-based. The settings on record: in vivo.
Series [9] can be described thus: Tmax in Wistar Han rat at 5 mg/kg, po measured at 0.083 to 24 hrs by LC-MS/MS analysis. Type of series: ADME, organism-based. The settings on record: in vivo, time 0.083-24 hrs.
Series [10] in a line: Cmax in Wistar Han rat at 5 mg/kg, po measured at 0.083 to 24 hrs by LC-MS/MS analysis. Type of series: ADME, organism-based. Details: dose 5 mg/kg, time upper 24 hrs, time lower 0.083 hrs, route po. The settings on record: in vivo.
Another series relates to Mus musculus. Briefly: Effect on body weight in anorexia/cachexia mouse model assessed as body weight gain administered twice a day for 20 days and measured at 1 to 21 days. To be noted: dose 0.3-10 mg/kg, time 1-21 day. Type of series: functional, organism-based.
Series [11] in a line: Oral bioavailability in Wistar Han rat at 5 mg/kg measured at 0.083 to 24 hrs by LC-MS/MS analysis. Type of series: ADME, organism-based. To be noted: in vivo, time 0.083-24 hrs.
The nature of series [12]: Volume of distribution at steady state in Wistar Han rat at 1 mg/kg, iv measured at 0.033 to 24 hrs by LC-MS/MS analysis. The settings on record: in vivo, time 0.033-24 hrs, read-out: Vdss. Type of series: ADME, organism-based.
The nature of series [13]: Octanol-water distribution coefficient, logD of the compound at pH 7.4 by RP-HPLC analysis. Type of series: physicochemical.
Series [14] deals with cGMP-dependent 3',5'-cyclic phosphodiesterase (Homo sapiens, UniProt O00408). Briefly: Inhibition of human PDE2A1.
The nature of series [15]: Tmax in Beagle dog at 1 mg/kg, po measured at 0.25 to 24 hrs by LC-MS/MS analysis. The series is classed as ADME, organism-based, Canis lupus familiaris. To be noted: in vivo, time 0.25-24 hrs.
Series [16] deals with T1, Melanocortin receptor 5. Briefly: Agonist activity at human MC5R expressed in CHO cells assessed as increase in alpha-MSH induced cAMP level measured for 60 mins. Type of series: functional, cell-based. On the technique in general: cAMP levels reflect the balance of adenylyl cyclase and phosphodiesterase activity.
A short description of series [17]: Metabolic stability in human hepatocyte assessed as intrinsic clearance measured per million cells HPLC/UV/MS analysis. To be noted: hepatocytes, read-out: CLH. Type of series: ADME, cell-based.

T1 sequence (P33032 whole entry): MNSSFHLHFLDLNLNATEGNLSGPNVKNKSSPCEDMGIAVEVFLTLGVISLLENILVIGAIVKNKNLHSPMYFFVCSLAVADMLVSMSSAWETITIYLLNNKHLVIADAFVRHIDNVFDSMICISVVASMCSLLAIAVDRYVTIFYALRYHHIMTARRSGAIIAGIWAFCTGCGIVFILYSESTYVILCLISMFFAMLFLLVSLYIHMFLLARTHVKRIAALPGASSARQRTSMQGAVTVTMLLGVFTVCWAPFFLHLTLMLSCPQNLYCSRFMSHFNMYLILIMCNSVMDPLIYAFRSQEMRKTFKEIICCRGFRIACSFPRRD
Sequence of cGMP-dependent 3',5'-cyclic phosphodiesterase (O00408 whole entry): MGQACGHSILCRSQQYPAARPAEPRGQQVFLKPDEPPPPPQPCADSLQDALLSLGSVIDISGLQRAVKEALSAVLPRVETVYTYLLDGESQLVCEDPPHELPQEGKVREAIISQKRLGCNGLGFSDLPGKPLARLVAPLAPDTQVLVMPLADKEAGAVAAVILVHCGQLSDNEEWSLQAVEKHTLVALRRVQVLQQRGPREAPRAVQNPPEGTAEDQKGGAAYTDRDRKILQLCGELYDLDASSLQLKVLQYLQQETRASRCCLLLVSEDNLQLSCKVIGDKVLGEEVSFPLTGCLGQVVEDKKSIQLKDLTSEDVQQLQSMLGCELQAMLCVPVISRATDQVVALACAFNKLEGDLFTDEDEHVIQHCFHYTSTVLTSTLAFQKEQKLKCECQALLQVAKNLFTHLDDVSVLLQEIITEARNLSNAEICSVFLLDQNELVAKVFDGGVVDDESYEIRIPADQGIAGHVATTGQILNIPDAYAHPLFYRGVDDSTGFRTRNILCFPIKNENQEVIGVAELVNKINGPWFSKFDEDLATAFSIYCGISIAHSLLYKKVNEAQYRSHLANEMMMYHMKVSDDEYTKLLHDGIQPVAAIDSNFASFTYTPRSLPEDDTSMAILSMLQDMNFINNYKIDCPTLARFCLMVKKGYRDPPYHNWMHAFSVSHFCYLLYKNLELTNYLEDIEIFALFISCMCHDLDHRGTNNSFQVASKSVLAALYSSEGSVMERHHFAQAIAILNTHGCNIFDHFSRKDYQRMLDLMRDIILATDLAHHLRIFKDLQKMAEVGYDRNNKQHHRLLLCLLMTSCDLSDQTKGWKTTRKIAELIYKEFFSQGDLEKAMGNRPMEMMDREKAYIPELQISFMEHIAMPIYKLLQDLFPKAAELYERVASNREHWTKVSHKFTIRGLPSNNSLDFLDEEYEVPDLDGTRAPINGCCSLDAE
Sequence of Voltage-gated inwardly rectifying potassium channel KCNH2 (Q12809 whole entry): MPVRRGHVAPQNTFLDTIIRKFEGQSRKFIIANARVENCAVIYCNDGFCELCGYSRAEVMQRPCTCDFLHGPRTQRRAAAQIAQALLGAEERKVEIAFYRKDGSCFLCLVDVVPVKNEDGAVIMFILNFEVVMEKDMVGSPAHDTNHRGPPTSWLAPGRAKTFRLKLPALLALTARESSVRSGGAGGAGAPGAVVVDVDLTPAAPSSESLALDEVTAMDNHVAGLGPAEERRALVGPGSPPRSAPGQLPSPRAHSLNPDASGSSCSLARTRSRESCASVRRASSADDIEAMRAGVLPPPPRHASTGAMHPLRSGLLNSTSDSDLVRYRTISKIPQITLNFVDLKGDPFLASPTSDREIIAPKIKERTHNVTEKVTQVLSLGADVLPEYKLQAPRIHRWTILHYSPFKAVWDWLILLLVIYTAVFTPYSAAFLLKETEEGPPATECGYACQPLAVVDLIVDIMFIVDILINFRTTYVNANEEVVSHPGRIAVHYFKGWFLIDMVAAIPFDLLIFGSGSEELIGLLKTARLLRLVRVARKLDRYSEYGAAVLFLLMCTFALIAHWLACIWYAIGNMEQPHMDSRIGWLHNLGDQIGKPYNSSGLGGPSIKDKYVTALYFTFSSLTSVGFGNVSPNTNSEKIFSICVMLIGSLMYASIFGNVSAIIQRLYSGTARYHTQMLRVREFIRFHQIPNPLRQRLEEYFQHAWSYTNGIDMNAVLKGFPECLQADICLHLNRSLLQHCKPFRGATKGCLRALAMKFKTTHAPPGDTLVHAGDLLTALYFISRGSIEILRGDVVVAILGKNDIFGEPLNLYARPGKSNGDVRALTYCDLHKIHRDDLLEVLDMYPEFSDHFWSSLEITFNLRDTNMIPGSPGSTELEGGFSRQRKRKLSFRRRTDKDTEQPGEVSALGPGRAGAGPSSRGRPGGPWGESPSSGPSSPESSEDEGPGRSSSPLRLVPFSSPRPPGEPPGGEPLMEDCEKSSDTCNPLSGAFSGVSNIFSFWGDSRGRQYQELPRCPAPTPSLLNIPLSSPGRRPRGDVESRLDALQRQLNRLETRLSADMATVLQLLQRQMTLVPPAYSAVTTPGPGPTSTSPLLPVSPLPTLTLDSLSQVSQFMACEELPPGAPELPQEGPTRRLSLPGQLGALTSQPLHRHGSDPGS
Sequence of 3',5'-cyclic-AMP phosphodiesterase 7B (Q9NP56 whole entry): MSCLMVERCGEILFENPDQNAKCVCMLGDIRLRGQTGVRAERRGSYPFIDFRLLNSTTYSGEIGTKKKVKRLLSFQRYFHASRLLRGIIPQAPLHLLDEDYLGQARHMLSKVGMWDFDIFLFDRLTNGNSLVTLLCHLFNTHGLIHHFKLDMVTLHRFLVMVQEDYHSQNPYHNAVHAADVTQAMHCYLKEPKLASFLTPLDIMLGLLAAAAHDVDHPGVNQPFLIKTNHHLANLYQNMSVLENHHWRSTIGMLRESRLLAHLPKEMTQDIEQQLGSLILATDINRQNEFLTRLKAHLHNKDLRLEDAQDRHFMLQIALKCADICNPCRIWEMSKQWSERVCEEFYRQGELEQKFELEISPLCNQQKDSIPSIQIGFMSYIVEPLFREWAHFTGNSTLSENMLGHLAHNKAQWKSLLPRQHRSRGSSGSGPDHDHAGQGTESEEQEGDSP
Sequence of Melanocortin receptor 3 (P41968 whole entry): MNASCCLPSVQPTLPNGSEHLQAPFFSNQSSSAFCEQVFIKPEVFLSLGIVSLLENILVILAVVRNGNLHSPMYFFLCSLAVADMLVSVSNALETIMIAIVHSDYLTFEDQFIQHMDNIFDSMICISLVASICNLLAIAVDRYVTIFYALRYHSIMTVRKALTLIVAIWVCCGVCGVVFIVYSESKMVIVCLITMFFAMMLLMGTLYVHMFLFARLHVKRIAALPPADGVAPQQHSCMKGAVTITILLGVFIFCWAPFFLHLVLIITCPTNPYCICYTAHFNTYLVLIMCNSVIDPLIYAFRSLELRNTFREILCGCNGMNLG

A word on the IC50: it is the concentration needed to halve the response being measured. Read a high IC50 as weaker potency in that assay. By AUC(0-t) is commonly meant the area under the concentration-time curve up to a stated or last time point. Broadly, the Ki is a dissociation constant, usually derived from enzyme kinetics or from competition with a known ligand. A higher Ki goes with lower affinity. As a reminder, the AUC(0-inf) is the area under the concentration-time curve extrapolated to infinity. Usually Tmax stands for the time from dosing to the highest level. By Cmax is commonly meant the maximum level reached in the sampled fluid or tissue. As a reminder, the bioavailability is the share of a dose that reaches the circulation, judged against a reference dose that is usually intravenous. Read a high bioavailability as good availability. What is called logD is lipophilicity at a set pH, counting ionised and neutral species. A higher logD goes with higher lipophilicity. As to `COc1cc([C@@H](C)C(=O)N2CC[C@@]3(COc4cc(-c5ncccn5)c(C)nc4N3)C2)c(F)cn1`, the IC50 in series [1] was over 50000 nM; in series [4], 27000 nM; in [14], over 50000 nM. In addition, the values for the AUC(0-t) in series [2] and in series [6] were 1110 ng·h/mL and 780 ng·h/mL, respectively. The Ki worked out at 840 nM on Melanocortin receptor 5 [3], 0.094 nM in series [5] and 340 nM on Melanocortin receptor 3. Besides, the AUC(0-inf) in series [7] was found to be 1120 ng·h/mL; in series [8], 785 ng·h/mL. For the same molecule, the Tmax in series [9] is 30 min; in series [15], 22.8 min. The peak level in series [10] (Cmax) was 600 ng/mL. In addition, the Activity entry in the series on Mus musculus is “Dose-Dependent Effect”. The molecule further had a bioavailability in series [11] of 28%. The Vd in [12] turned out to be 0.95 L/kg. The logD in series [13] came to 2.6. Further, the outcome at Melanocortin receptor 5 [16] was inactive. In [17], the hepatocyte CLint was 12 µL/min/1e6 cells.
